Here are results for 15 molecules from patent US6743789B2, “Substituted imidazo[1,5-a][1,2,4]triazolo[4,3-d][1,4]benzodiazepine derivatives” (Hoffmann-La Roche Inc., priority 2000, dated 2004).

pKi: −log10 of the molar value. Where a name gives a salt, the structure may show the parent alone. Read-outs that look alike come from different tables or passages of the source.

Data set [1] deals with T1, rat GABA A receptor α1β3γ2 (Rattus norvegicus, UniProt P18508+P62813).
T1 construct: expressed in transfected cells; host or cells: SF9 insect cells
In words: [3H]flumazenil competition binding, GABA A α1β3γ2. The settings on record: for Ki: [3H]flumazenil 1 nM, SF9 cells expressing rat α1β3γ2, mean of two determinations, read-out: Ki[nM] ra1. The protocol: (§1) The affinity of compounds at GABA A receptor subtypes was measured by competition for [^3H]flumazenil (85 Ci/mmol; Amersham) binding to SF9 cells expressing rat receptors of composition α1β3γ2, α2β3γ2, α3β3γ2 and α5β3γ2.
(§2) Cellpellets were suspended in Krebs-tris buffer (4.8 mM KCl, 1.2 mM CaCl2, 1.2 mM MgCl2, 120 mM NaCl, 15 mM Tris; pH 7.5; binding assay buffer), homogenized by polytron for ca. 15 sec on ice and centrifuged in UZ for 30 min at 4° C. (100000 g; rotor: TFT 4594=300000 rpm). The cellpellets were resuspended in Krebs-tris buffer and homogenized by polytron for ca. 15 sec on ice. Aliquots of 1 ml were prepared, protein was measured (Bradford method) and the resulting membrane aliquots were stored at −70° C.
(§3) Radioligand binding assays were carried out in a volume of 200 μL (96-well plates) which contained 100 μL of cells, [^3H]flumazenil at a concentration of 1 nM for α1α2α3 subunits and 0.5 nM for α5 subunits and the test compound in the range of
(§4) 10^−10−3×10^−6 M. Nonspecific binding was defined by 10^−5 M diazepam and typically represented less than 5% of the total binding. Assays were incubated to equilibrium for 1 hour at 4° C. and harvested onto GF/C uni-filters (Packard) by filtration using a Packard harvester and washing with ice-cold wash buffer (50 mM Tris; pH 7.5). After drying, filter-retained radioactivity was detected by liquid scintillation counting. Ki values were calculated using Excel-Fit (Microsoft) and are the means of two determinations.

Data set [2] addresses T2, rat GABA A receptor α2β3γ2 (Rattus norvegicus, UniProt P18508+P23576).
T2 construct: expressed in transfected cells; host or cells: SF9 insect cells
Description: [3H]flumazenil competition binding, GABA A α2β3γ2. The settings on record: for Ki: [3H]flumazenil 1 nM, SF9 cells expressing rat α2β3γ2, mean of two determinations, read-out: Ki[nM] ra2. The protocol: as §1, §2, §3, §4

Data set [3] concerns the target T3, rat GABA A receptor α3β3γ2 (Rattus norvegicus, UniProt P18508+P20236).
T3 construct: expressed in transfected cells; host or cells: SF9 insect cells
Description: [3H]flumazenil competition binding, GABA A α3β3γ2. The settings on record: for Ki: [3H]flumazenil 1 nM, SF9 cells expressing rat α3β3γ2, mean of two determinations, read-out: Ki[nM] ra3. The protocol: as §1, §2, §3, §4

Data set [4] has as its target T4, rat GABA A receptor α5β3γ2 (Rattus norvegicus, UniProt P18508+P19969).
T4 construct: expressed in transfected cells; host or cells: SF9 insect cells
In words: [3H]flumazenil competition binding, GABA A α5β3γ2. The settings on record: for Ki: [3H]flumazenil 0.5 nM, SF9 cells expressing rat α5β3γ2, mean of two determinations, read-out: Ki[nM] ra5. The protocol:
as §1, §2, §3, §4

The conditions of data set [5]: McNamara and Skelton, Psychobiology 21:101-108; cited from earlier work.
The conditions of data set [6]: in vivo; cited from earlier work.

With “3-Chloro-10-(5-cyclopropyl-1,2,4-oxadiazol-3-yl)-7-(1H-indol-3-ylmethyl)-9H-imidazo[1,5-a][1,2,4]triazolo[4,3-d][1,4]benzodiazepine [Example 61]”, the Ki in data set [1] was 67.3 nM; in data set [2], 53 nM; in data set [3], 18.9 nM; in data set [4], 1.3 nM.

`CCOC(=O)c1ncn2c1Cn1c(Cc3ccncc3)nnc1-c1cc(Cl)ccc1-2` (as salt: hydrochloride) [Example 69, Ethyl 3-chloro-7-(pyridin-4-ylmethyl)-9H-imidazo[1,5-a][1,2,4]triazolo[4,3-d][1,4]-benzodiazepine-10-carboxylate]: the melting point stood at 213 °C.

Take `CCOC(=O)c1ncn2c1Cn1cnnc1-c1cc(OC)ccc1-2` [Example 1, Ethyl 3-methoxy-9H-imidazo[1,5-a][1,2,4]triazolo[4,3-d][1,4]-benzodiazepine-10-carboxylate]: the melting point was 197 °C. Moreover, the pKi in data set [1] was 7.51. In data set [2], this molecule had a negative logarithm of the Ki (pKi) of 7.24. This molecule had a pKi in data set [3] of 7.41. Further, the Ki in data set [4] amounted to 1.3 nM.

As for `Cc1ccc2c(c1)-c1nncn1Cc1c(-c3nc(C4CC4)no3)ncn1-2` [Example 6, 10-(3-Cyclopropyl-1,2,4-oxadiazol-5-yl)-3-methyl-9H-imidazo[1,5-a][1,2,4]triazolo[4,3-d][1,4]benzodiazepine], the melting point lay in the range of 253 to 256 °C. The Ki in data set [1] came to 408 nM. For the same molecule, the Ki in data set [2] was 362 nM. In data set [3], the Ki was determined as 149 nM. In data set [4], the pKi is 7.97.

The molecule `CCOC(=O)c1ncn2c1Cn1cnnc1-c1cc(Cl)ccc1-2` [Example 13, Ethyl 3-chloro-9H-imidazo[1,5-a][1,2,4]triazolo[4,3-d][1,4]benzodiazepine-10-carboxylate] had a melting point of 226 to 227 °C. Moreover, the pKi in data set [1] was 7.46. Besides, the pKi in data set [2] is 7.26. This molecule also gave a pKi in data set [3] of 7.63. Besides, the Ki in data set [4] was 1.2 nM.

On to `CCOC(=O)c1ncn2c1Cn1c(C)nnc1-c1cc(OC)ccc1-2` [Example 19, Ethyl 3-methoxy-7-methyl-9H-imidazo[1,5-a][1,2,4]triazolo[4,3-d][1,4]-benzodiazepine-10-carboxylate], for which the melting point was found to be 210 °C. For the same molecule, the pKi in data set [1] is 6.32. The pKi in data set [2] is 6.30. In addition, the pKi in data set [3] was 6.32. Besides, the Ki in data set [4] amounted to 14.5 nM.

In the case of `CCOC(=O)c1ncn2c1Cn1c(CO)nnc1-c1cc(OC)ccc1-2` [Example 25, Ethyl 7-hydroxymethyl-3-methoxy-9H-imidazo[1,5-a][1,2,4]triazolo[4,3-d][1,4]-benzodiazepine-10-carboxylate], the melting point is 255 °C. The molecule further gave a pKi in data set [1] of 7.02. For the same molecule, in data set [2], the Ki was determined as 123 nM. In addition, the Ki in data set [3] worked out at 107 nM. Further, the pKi in data set [4] is 8.23.

In the case of `CCOC(=O)c1ncn2c1Cn1c(Cc3c[nH]c4c(OC)cccc34)nnc1-c1cc(OC)ccc1-2` [Example 37, Ethyl 3-methoxy-7-[(7-methoxy-1H-indol-3-yl)methyl]-9H-imidazo[1,5-a][1,2,4]triazolo[4,3-d][1,4]-benzodiazepine-10-carboxylate], the Ki in data set [1] came to 296 nM; in data set [2] it was 266 nM; in data set [3], 162 nM; in data set [4], 8.2 nM.

Turning to `CCOC(=O)c1ncn2c1Cn1c(Cc3c[nH]c4ccccc34)nnc1-c1cc(Br)ccc1-2` [Example 47, Ethyl 3-bromo-7-(1H-indol-3-ylmethyl)-9H-imidazo[1,5-a][1,2,4]triazolo[4,3-d][1,4]-benzodiazepine-10-carboxylate], the melting point was 258 °C (dec.). Further, the Ki in data set [1] stood at 694 nM. In addition, the Ki in data set [2] came out at 225 nM. The Ki in data set [3] is 100 nM. In addition, in data set [4], the pKi was 7.88.

On to `CCOC(=O)c1ncn2c1Cn1c(Cc3cccc(OC)c3)nnc1-c1cc(Br)ccc1-2` [Example 50, Ethyl 3-bromo-7-(3-methoxy-benzyl)-9H-imidazo[1,5-a][1,2,4]triazolo[4,3-d][1,4]-benzodiazepine-10-carboxylate], for which the melting point is 111 to 113 °C. The Ki in data set [1] came out at 1000 nM. In data set [2], the Ki was determined as 409 nM. In addition, in data set [3], the Ki amounted to 220 nM. For the same molecule, the pKi in data set [4] is 7.84.

Take `CCOC(=O)c1ncn2c1Cn1c(Cc3ccc(-c4ccccc4)cc3)nnc1-c1cc(OC)ccc1-2` [Example 54, Ethyl 3-methoxy-7-[(biphenyl-4-yl)methyl]-9H-imidazo[1,5-a][1,2,4]triazolo[4,3-d][1,4]-benzodiazepine-10-carboxylate]: the pKi in data set [1] is 7.19; in data set [4], 7.89. Also, the Ki in data set [2] amounted to 148 nM; in data set [3], 108 nM.

Turning to `Clc1ccc2c(c1)-c1nnc(Cc3ccccc3)n1Cc1c(-c3noc(C4CC4)n3)ncn1-2` [Example 63, 7-Benzyl-3-chloro-10-(5-cyclopropyl-1,2,4-oxadiazol-3-yl)-9H-imidazo[1,5-a][1,2,4]triazolo[4,3-d][1,4]benzodiazepine], the pKi in data set [1] was 7.90; in data set [2] it was 7.97; in data set [3], 8.25. In data set [4], the Ki was determined as 0.6 nM.

`CCOC(=O)c1ncn2c1Cn1c(Cc3ccncc3)nnc1-c1cc(Cl)ccc1-2` [Example 69, Ethyl 3-chloro-7-(pyridin-4-ylmethyl)-9H-imidazo[1,5-a][1,2,4]triazolo[4,3-d][1,4]-benzodiazepine-10-carboxylate]: the Ki in data set [1] came out at 360 nM; in data set [2], 308 nM; in data set [3] it was 158 nM. The molecule further showed a pKi in data set [4] of 8.15.

Regarding `COC(=O)c1cc2c(cn1)[nH]c1ccccc12` [β-CCM], the “spatial learning in the Morris watermaze” value in data set [5] was “enhance spatial learning”. Further, in data set [6], the “proconvulsant or convulsant activity” value is recorded as “proconvulsant or convulsant”.

For the molecule “Ethyl 3-methoxy-7-(1H-indol-3-ylmethyl)-9H-imidazo[1,5-a][1,2,4]triazolo[4,3-d][1,4]-benzodiazepine-10-carboxylate [Example 20]”, the Ki turned out to be 803 nM in data set [1], 284 nM in data set [2], 191 nM in data set [3] and 10.7 nM in data set [4].

By Ki is commonly meant a dissociation constant, usually derived from enzyme kinetics or from competition with a known ligand. By melting point is commonly meant the temperature, or range, at which the solid turns liquid. By pKi is commonly meant the negative decadic logarithm of the Ki, by convention in mol/L. The low end stands for a large Ki, the high end for a small Ki.
